Data from patent US7160898B2, “Pharmacological treatment for sleep apnea” (Board of Trustees of The University of Illinois, priority 2002, dated 2007).

Key:
[1] = test system: 5-hydroxytryptamine receptors; settings: anesthetized animals, cited from earlier work; for apnea after intravenous administration: duration increased dose-dependently
sleep apnea syndrome = settings: cited from earlier work; for effect in patients with sleep apnea: literature reports
[2] = test system: animal model of sleep apnea; settings: U.S. Pat. No. 5,075,290; cited from earlier work
[3] = test system: spontaneous sleep-related central apneas; experiment: Induction and suppression of sleep apneas by serotonin and GR38032F (Example 3); assay type: in vivo, rat (Sprague-Dawley); settings: 6 hour recording
Method: Ten adult male Sprague-Dawley rats (Sasco-King, Wilmington, Mass.; 300 g) were maintained on a 12-h light (08:00–20:00 hour)/12-hour dark (20:00–08:00) cycle for one week, housed in individual cages, and given ad libitum access to food and water. Following the one week of acclimatization, animals were prepared for physiological testing via the surgical procedures (i.e., implantation of cortical electrodes for EEG recording and neck muscle electrodes for EMG recording, implantation of a radiotelemetry transmitter for BP and HP monitoring) as set forth above in Example 1. After completion of the surgical procedures, animals were allowed a one week recovery period prior to use in the present study. Each animal was recorded on four occasions, with recordings for an individual animal separated by at least three days. Fifteen minutes prior to each recording, each animal received (via intraperitoneal injection), in random order, one of the following: (a) saline solution (control); (b) 0.79 mg/kg serotonin; (c) 0.1 mg/kg GR38032F plus 0.79 mg/kg serotonin; or (d) 0.1 mg/kg GR38032F. For the GR38032F+serotonin test group, 0.1 mg/kg GR38032F was administered at time 09:30 followed by 0.79 mg/kg serotonin at time 09:45. Polygraphic recordings were made from 10:00–16:00. Respiration BP, EEG, and EMG data were determined and recorded via the experimental procedure as specifically set forth above in Example 2. As in Example 2, sleep apneas, defined as cessation of respiratory effort for at least 2.5 s, were scored for each recording session and were associated with the stage in which they occurred: NREM or REM sleep. The duration requirement of 2.5 s represents at least two “missed” breaths, which is analogous to a 10-s apnea duration requirement in humans. The effects of sleep stage (NREM vs REM) and injection (control vs. administration of either serotonin alone, GR38032F+serotonin, or GR38032F alone) on apnea indexes, respiratory pattern, BP, and HP were tested using analysis of variance (ANOVA) with repeated measures. Multiple comparisons were controlled using Fisher's protected least-significance difference (PLSD). One-way ANOVA was also performed by nonparametric (Kruskal-Wallis) analysis. Conclusions using parametric and nonparametric ANOVA were identical in all cases.

sleep/wake architecture = experiment: Sleep/wake architecture after 5-HT and GR38032F (Example 3); assay type: in vivo, rat (Sprague-Dawley); settings: i.p.
Method: Sleep and waking states were assessed using the biparietal EEG and nuchal EMG signals on 10-second epochs as described by Bennington et al. [Sleep, 17:28–36 (1994)]. This software discriminated wakefulness (W) as a high frequency low amplitude EEG with a concomitant high EMG tone, NREM sleep by increased spindle and […] activity together with decreased EMG tone, and REM sleep by a […] activity and an absence of EMG tone. Sleep efficiency was measured as the percentage of total recorded epochs staged as NREM or REM sleep.
(§1) Each animal was recorded on four occasions, with recordings for an individual animal separated by at least three days. Fifteen minutes prior to each recording, each animal received (via intraperitoneal injection), in random order, one of the following: (a) saline solution (control); (b) 0.79 mg/kg serotonin; (c) 0.1 mg/kg GR38032F plus 0.79 mg/kg serotonin; or (d) 0.1 mg/kg GR38032F. For the GR38032F+serotonin test group, 0.1 mg/kg GR38032F was administered at time 09:30 followed by 0.79 mg/kg serotonin at time 09:45. Polygraphic recordings were made from 10:00–16:00.
(§2) Respiration BP, EEG, and EMG data were determined and recorded via the experimental procedure as specifically set forth above in Example 2. As in Example 2, sleep apneas, defined as cessation of respiratory effort for at least 2.5 s, were scored for each recording session and were associated with the stage in which they occurred: NREM or REM sleep. The duration requirement of 2.5 s represents at least two “missed” breaths, which is analogous to a 10-s apnea duration requirement in humans.
(§3) The effects of sleep stage (NREM vs REM) and injection (control vs. administration of either serotonin alone, GR38032F+serotonin, or GR38032F alone) on apnea indexes, respiratory pattern, BP, and HP were tested using analysis of variance (ANOVA) with repeated measures. Multiple comparisons were controlled using Fisher's protected least-significance difference (PLSD). One-way ANOVA was also performed by nonparametric (Kruskal-Wallis) analysis. Conclusions using parametric and nonparametric ANOVA were identical in all cases.

RR, VE, mean BP, HP = experiment: Respiratory pattern, BP and HP after serotonin and GR38032F (Example 3); assay type: in vivo, rat (Sprague-Dawley)
Method: Similar software (Experimenters' Workbench; Datawave Technologies, Longmont, Colo.) was employed to analyze the blood pressure waveform; for each beat of each recording, systolic (SBP) and diastolic (DBP) blood pressures and pulse interval were measured. The pulse interval provided a beat by beat estimate of HP. Mean BP (MBP) was estimated according to the weighted average of SBP and DBP for each beat: MBP=DBP+(SBP−DBP)/3. The parameters for each beat were also classified according to the sleep/wake state and recording hour during which they occurred.
as §1, §2
as §3, with “Conclusions using parametric and nonparametric ANOVA were identical in all cases.” left out

[4] = percent recording time, 6 hours, 5-HT 0.79 mg/kg, GR38032F 0.1 mg/kg, mean ± SE

## Cc1[nH]c2ccc(O)cc2c1CCN [2-methyl-5-hydroxytryptamine]
[1]
  apnea after intravenous administration: produced transient apnea

## N[C@@H](Cc1c[nH]c2ccccc12)C(=O)O [L-tryptophan]
Sleep apnea syndrome
  effect in patients with sleep apnea: may have a beneficial effect on sleep apnea syndrome

## CNCCCC1c2ccccc2C=Cc2ccccc21 [Protriptyline]
Sleep apnea syndrome
  effect in patients with sleep apnea: variable results and frequent and significant side effects

## CC(N)Cc1c[nH]c2ccc(O)cc12 (centres unmarked) [a-methyl-5-hydroxytryptamine]
[1]
  apnea after intravenous administration: produced transient apnea

## CC(=O)Nc1nnc(S(N)(=O)=O)s1 [acetazolamide]
Sleep apnea syndrome
  effect in patients with sleep apnea: variable improvement in individuals with primary central apneas but caused an increase in obstructive apneas

## Nc1ncnc2c1ncn2[C@@H]1O[C@H](CO)[C@@H](O)[C@H]1O [adenosine]
[2]
  reduction of apnea: somewhat effective in reducing apnea

## O=C1CC2(CCCC2)CC(=O)N1CCCCN1CCN(c2ncccn2)CC1 [buspirone]
Sleep apnea syndrome; Mendelson et al. 1991
  patients with sleep apnea syndrome with reduced apnea index: 4 of 5
Sleep apnea syndrome
  effect in patients with sleep apnea: eliminate post-surgical apneustic breathing in one child

## CCN1CC(CCN2CCOCC2)C(c2ccccc2)(c2ccccc2)C1=O (centres unmarked) [doxapram]
Sleep apnea syndrome
  effect in patients with sleep apnea: decrease the length of apneas but did not alter the average arterial oxygen saturation

## CNCCC(Oc1ccc(C(F)(F)F)cc1)c1ccccc1 (centres unmarked) [fluoxetine]
Sleep apnea syndrome
  effect in patients with sleep apnea: benefit some but not all patients with sleep apnea syndrome

## O=C(c1ccc(F)cc1)C1CCN(CCn2c(=O)[nH]c3ccccc3c2=O)CC1 [ketanserine]
[1]
  antagonism of agonist-induced transient apnea: significantly antagonized

## CC[C@@H](CO)NC(=O)[C@@H]1C=C2c3cccc4c3c(cn4C)C[C@H]2N(C)C1 [methysergide]
[1]
  antagonism of agonist-induced transient apnea: significantly antagonized

## C=CCN1CC[C@]23c4c5ccc(O)c4O[C@H]2C(=O)CC[C@@]3(O)[C@H]1C5 [naloxone]
Sleep apnea syndrome
  effect in patients with sleep apnea: only slightly helpful

## Fc1ccc([C@@H]2CCNC[C@H]2COc2ccc3c(c2)OCO3)cc1 [paroxetine]
Sleep apnea syndrome
  effect in patients with sleep apnea: benefit some but not all patients with sleep apnea syndrome

## NCCc1c[nH]c2ccc(O)cc12 [serotonin, 5-hydroxytryptamine]
[3]; i.p., serotonin 0.79 mg/kg, GR38032F 0.1 mg/kg
  spontaneous apnea index during NREM sleep: not affected by any drug treatment
[3]; serotonin 0.79 mg/kg i.p.
  increase of spontaneous apnea expression during REM sleep compared to control: > 250%
sleep/wake architecture; 6 hours of polygraphic recording
  effect on sleep architecture: had no effect on sleep architecture
sleep/wake architecture; [4]
  % NREM: 59.9 ± 3.3%
  % REM: 6.5 ± 1.1%
  % Wakefulness: 30.2 ± 3.2%
[1]
  apnea after intravenous administration: produced transient apnea
RR, VE, mean BP, HP; i.p., serotonin 0.79 mg/kg, GR38032F 0.1 mg/kg, data not shown
  effect on RR, VE, mean BP, HP, or PS apnea index: had no effect on sleep, cardiovascular variables, RR, or VE
RR, VE, mean BP, HP; serotonin 0.79 mg/kg i.p.
  beat-to-beat heart rate and BP variability (coefficients of variation): unaffected
RR, VE, mean BP, HP; serotonin 0.79 mg/kg i.p., 6 hour recording period
  changes in heart rate or mean BP: did not elicit changes in either heart rate or mean BP

## Cn1c(=O)c2[nH]cnc2n(C)c1=O [theophylline]
Sleep apnea syndrome
  effect in patients with sleep apnea: may benefit patients with central apnea but appears to be of no use in adult patients with obstructive apnea

## medroxyprogesterone
Sleep apnea syndrome
  effect in patients with sleep apnea: no consistent benefit in OSAS
